Like-named read-outs stand apart in the source and are kept apart here.
Key:
[1] = Stability test of compounds in Simulated Gastric Fluid (SGF); type: in vitro ADME; conditions: for Stability in SGF (in words): 24 hours; for Remaining of Test Compound (%): SGF pH about 1.20, 37° C., 2 μM
Method: The pH of the test solution was about 1.20±0.05.
(§3) Then 200 μL of supernatant was pipetted and mixed completely again with 400 μL of cold acetonitrile containing 200 ng/mL tolbutamide (internal standard). • 7) All samples were centrifuged at 4000 rpm, 4° C. for 20 min. • 8) 60 μL of supernatant was pipetted and mixed with 180 μL of ultra-pure water, and the mixture was mixed completely for LC-MS/MS analysis.

[2] = for Remaining of Test Compound (%): SIF pH about 6.80, 37° C., 2 μM
Method: Preparation of Simulated Intestinal Fluid (SIF): Dissolve 0.136 g KH2PO4 and 0.2 g pancreatin with water and make up the final volume to 20 mL. The pH of the test solution was about 6.80±0.05.
as §3

[3] = Simulated metabolic test of compounds in Human Intestine S9; type: in vitro ADME; conditions: for Remaining of Test Compound (%): HIS9 0.5 mg/mL, 37° C.
Method: Preparation of Phosphate Buffer (PB): Dissolve 73.21 g K2TIPO4·3H2O (AR grade) and 10.78 g KH2PO4 (AR grade) in ultra-pure water to make the final volume to 4000 mL and the final concentration to 100 mM. The pH of the final test solution was adjusted to pH 7.40±0.10 with H3PO4/KOH.
An Apricot automation workstation was used to add 50 μL/well of HIS9 solution to the corresponding wells of all reaction plates (blank, T0, T5, T15, T30, T45, T60).
Using an Apricot automation workstation, 2 μL/well of test compound working solution was added to the corresponding wells of all 96-well reaction plates except the blank (T0, T5, T15, T30, T45, T60).
An Apricot automation workstation was used to add 48 μL/well of PB to the corresponding wells of every reaction plate (Blank, T0, T5, T15, T30, T45, T60) to start the reaction.
The reaction plates were incubated at 37° C., and timer was started. An Apricot automation workstation was used to add 300 μL/well of stop solution (cold acetonitrile containing 200 ng/mL tolbutamide (internal standard)) to the corresponding wells of each reaction plate at its appropriate end time point to terminate the reaction.
Each plate was sealed and shaken for 10 minutes. After shaking, each plate was centrifuged at 4000 rpm and 4° C. for 20 minutes. After centrifugation, 100 μL of supernatant was transferred from each reaction plate to its corresponding bioanaylsis plate, and mixed well with 300 μL ultra-pure water.

C57BL/6J mice [4] = assay: Oral glucose tolerance test (OGTT), blood glucose; type: in vivo; conditions: for AUC0-120min of blood glucose vs vehicle control group / BG values after glucose treatment vs HMS5552-40 mg/kg group / BG values after glucose treatment vs vehicle control group / AUC0-120min of blood glucose vs corresponding groups of HMS5552: OGTT; for AUC0-120min of blood glucose vs vehicle control group: all low, middle, high dose groups; for AUC0-120min of blood glucose vs vehicle control group / BG values after glucose treatment vs HMS5552-40 mg/kg group / BG values after glucose treatment vs vehicle control group / AUC0-120min of blood glucose vs corresponding groups of HMS5552 / BG values at 0 min (pre-glucose) vs vehicle control group: PO; for BG values after glucose treatment vs HMS5552-40 mg/kg group: high dose group (Compound 3 49.1, Compound 6 46.1, Compound 7 48.6 mg/kg); for BG values after glucose treatment vs vehicle control group: high dose group (HMS5552 40 mg/kg; Compound 3 49.1 mg/kg); for AUC0-120min of blood glucose vs corresponding groups of HMS5552: middle and high dose levels (equimolar to 15 and 40 mg/kg HMS5552); for BG values at 0 min (pre-glucose) vs vehicle control group: all treatment groups, 1 hour after administration
Method: (§1) 104 C57BL/6J mice were randomly divided into 13 groups according to body weight, 8 mice per group. The first group were administered with vehicle solvent (5 mL/kg, PO) as the control group, other groups were administered with corresponding concentration of test compounds (5 mL/kg, PO). […] The oral glucose tolerance test (OGTT) was performed 1 hour after administration of test compounds. Blood glucose (BG) were measured at −60 min (pre-dose), 0 min (pre-glucose), 15 min, 30 min, 60 min and 120 min after glucose treatment. Blood samples (40 μl) were collected from tail veins at 0 min (pre-glucose), and 15 min (post-glucose) to separate plasma for insulin detection.
(§2) All data was transferred into an Excel spreadsheet. Blood glucose was expressed in mg/dL. All values were expressed as Mean±SEM. The significance of the differences between groups were evaluated by one-way ANOVA or two-way ANOVA followed by Dunnett's multiple comparisons test or Tukey's multiple comparisons test using GraphPad Prism 8. A p value of less than 0.05 is considered statistically significant.

[5] = Pharmacokinetic studies in male SD rats (IV bolus and gavage); conditions: rat, in vivo
Method: Samples were placed on wet ice until centrifugation (within 30 min). […] Supernatant plasma was pipetted, then quickly frozen over dry ice and kept at −60° C. or lower temperature until LC-MS/MS analysis.

Caco-2 cells = assay: Bi-directional permeability test using Caco-2 cells; conditions: for The average Apparent Permeability Papp A→B: 2 hours, pH 7.40
C57BL/6J mice [6] = assay: Plasma insulin levels during OGTT; type: in vivo; conditions: for Insulin levels at 0 min vs vehicle control group and HMS5552-40 mg/kg group: 0 min (pre-glucose); for Insulin levels at 15 min vs vehicle control group / Insulin levels at 15 min vs corresponding groups of HMS5552: 15 min post-glucose
Method: as §1, §2

[7] = Caco-2, Compound 3 concentration 2.00 μM
[8] = Caco-2, Compound 3 concentration 10.0 μM
[9] = Caco-2, Compound 3 concentration 30.0 μM
[10] = high dose (Compound 3 49.1, Compound 6 46.1, Compound 7 48.6 mg/kg)
[11] = middle dose (Compound 3 18.4, Compound 7 18.2 mg/kg)
[12] = high dose (Compound 6 46.1, Compound 7 48.6 mg/kg)

Compound | Stability in SGF (in words) [1] | Degradation in SIF (in words) [2] | Metabolism in human intestinal S9 (in words) ([3]; HIS9) | Remaining of Test Compound (%) ([3]; time point 5 min) | Remaining of Test Compound (%) ([3]; time point 15 min) | Remaining of Test Compound (%) ([3]; time point 30 min) | Remaining of Test Compound (%) ([3]; time point 45 min) | Remaining of Test Compound (%) ([3]; time point 60 min) | Insulin secretion and glucose-lowering effect as compared to HMS5552 (in words) (C57BL/6J mice [4]) | AUC0-120min of blood glucose vs vehicle control group (C57BL/6J mice [4]) | BG values after glucose treatment vs HMS5552-40 mg/kg group (C57BL/6J mice [4]) | BG values after glucose treatment vs vehicle control group (C57BL/6J mice [4]) | AUC0-120min of blood glucose vs corresponding groups of HMS5552 (C57BL/6J mice [4]) | BG values at 0 min (pre-glucose) vs vehicle control group (C57BL/6J mice [4]) | Metabolism after intravenous injection (in words) [5] | Insulin levels at 0 min vs vehicle control group and HMS5552-40 mg/kg group (C57BL/6J mice [6]; [10]) | Insulin levels at 15 min vs vehicle control group (C57BL/6J mice [6]; [10]) | Insulin levels at 15 min vs vehicle control group (C57BL/6J mice [6]; [11]) | Insulin levels at 15 min vs corresponding groups of HMS5552 (C57BL/6J mice [6]; [12]) | other results
CC(C)C[C@@H](C(=O)Nc1ccn(C[C@@H](O)COC(=O)c2cccnc2)n1)N1CC(Oc2ccccc2Cl)=CC1=O [Compound 3] | stable in SGF for 24 hours | extensively degraded in SIF | well metabolized in human intestinal S9 | 0% | 0% | 0% | 0% | 0% | increased insulin secretion and greater glucose-lowering effect as compared to HMS5552 | significantly lower than the vehicle control group, with dose-response relationship | significantly lower than HMS5552-40 mg/kg group at 30 min, 60 min, and 120 min | significantly lower than the vehicle control group at 15 min, 30 min, 60 min, and 120 min | significantly lower than the corresponding groups of HMS5552 (P<0.01) | overall lower than the vehicle control group, with dose-response relationship | metabolized very rapidly in rats by intravenous injection | significantly higher than the vehicle control group and HMS5552-40 mg/kg group at 0 min | significantly higher than the vehicle control group at 15 min | significantly higher than the vehicle control group at 15 min |  | Time within which completely metabolized and converted into parent drug HMS5552 ([3]; HIS9): ≤ 5 min; clearance ([5]; male SD rats, IV bolus 10 mg/kg, analyte prodrug): 290 mL/min/kg; Tmax ([5]; male SD rats, PO 30 mg/kg, analyte prodrug, read-out: Tmax (median)): 15 min; Average Recovery Rate (%) A→B (Caco-2 cells; [7]): 52.9%; Average Recovery Rate (%) B→A (Caco-2 cells; [7]): 87.1%; The average Apparent Permeability Papp A→B (Caco-2 cells; [7]): 0.02977 10^−6 cm/s; Average Recovery Rate (%) A→B (Caco-2 cells; [8]): 37.5%; Average Recovery Rate (%) B→A (Caco-2 cells; [8]): 81.6%; The average Apparent Permeability Papp A→B (Caco-2 cells; [8]): 0.03187 10^−6 cm/s; Average Recovery Rate (%) B→A (Caco-2 cells; [9]): 82.2%; The average Apparent Permeability Papp A→B (Caco-2 cells; [9]): 0.04322 10^−6 cm/s; Insulin levels at 15 min vs corresponding groups of HMS5552 (C57BL/6J mice [6]; middle dose (Compound 3 18.4 mg/kg)): significantly higher than the corresponding groups of HMS5552 at 15 min
CC(C)C[C@@H](C(=O)Nc1ccn(C[C@@H](O)CO)n1)N1CC(Oc2ccccc2Cl)=CC1=O [HMS5552, (S)-2-[4-(2-chloro-phenoxy)-2-oxo-2,5-dihydro-pyrrol-1-yl]-4-methyl-pentanoic acid [1-((R)-2,3-dihydroxy-propyl)-1H-pyrazol-3-yl]-amide, reference compound] |  |  |  |  |  |  |  |  |  | significantly lower than the vehicle control group, with dose-response relationship |  | significantly lower than the vehicle control group at 30 min, 60 min and 120 min |  | overall lower than the vehicle control group, with dose-response relationship |  |  |  |  |  | Insulin levels vs vehicle control group (C57BL/6J mice [6]; HMS5552 groups, 0 min and 15 min): slightly higher than the vehicle control group at 0 min and 15 min, without significant difference
CC(C)C[C@@H](C(=O)Nc1ccn(C[C@@H](O)COC(=O)[C@H](C)N)n1)N1CC(Oc2ccccc2Cl)=CC1=O [Compound 6] |  |  |  |  |  |  |  |  | increased insulin secretion and greater glucose-lowering effect as compared to HMS5552 | significantly lower than the vehicle control group, with dose-response relationship | significantly lower than HMS5552-40 mg/kg group at 15 min, 30 min, 60 min, and 120 min |  | significantly lower than the corresponding groups of HMS5552 (P<0.01) | overall lower than the vehicle control group, with dose-response relationship |  | significantly higher than the vehicle control group and HMS5552-40 mg/kg group at 0 min | significantly higher than the vehicle control group at 15 min |  | significantly higher than the corresponding groups of HMS5552 at 15 min | 
CC(C)C[C@@H](C(=O)Nc1ccn(C[C@@H](O)COC(=O)[C@@H](N)C(C)C)n1)N1CC(Oc2ccccc2Cl)=CC1=O [Compound 7] | stable in SGF for 24 hours | extensively degraded in SIF | well metabolized in human intestinal S9 | 30.7% | 18.8% | 7.2% | 3.9% | 2.7% | increased insulin secretion and greater glucose-lowering effect as compared to HMS5552 | significantly lower than the vehicle control group, with dose-response relationship | significantly lower than HMS5552-40 mg/kg group at 15 min, 30 min, 60 min, and 120 min |  | significantly lower than the corresponding groups of HMS5552 (P<0.01) | overall lower than the vehicle control group, with dose-response relationship | metabolized very rapidly in rats by intravenous injection | significantly higher than the vehicle control group and HMS5552-40 mg/kg group at 0 min | significantly higher than the vehicle control group at 15 min | significantly higher than the vehicle control group at 15 min | significantly higher than the corresponding groups of HMS5552 at 15 min | Remaining of Test Compound (%) ([1]; time point 0 hr): 100.00%; Remaining of Test Compound (%) ([1]; time point 1 hr): 103.14%; Remaining of Test Compound (%) ([1]; time point 2 hr): 104.44%; Remaining of Test Compound (%) ([1]; time point 6 hr): 102.68%; Remaining of Test Compound (%) ([1]; time point 24 hr): 108.07%; Remaining of Test Compound (%) ([2]; time point 0 hr): 100.00%; Remaining of Test Compound (%) ([2]; time point 1 hr): 25.13%; Remaining of Test Compound (%) ([2]; time point 2 hr): 3.50%; Remaining of Test Compound (%) ([2]; time point 6 hr): 4.88%; Remaining of Test Compound (%) ([2]; time point 24 hr): 0.00%; Remaining of Test Compound (%) ([3]; time point 0 min): 100%; Exposures (Cmax, Cmax ratio, AUC, AUC ratio) when administered orally vs parent drug (in words) ([5]; male, SD, po): comparable to the parent drug HIMS5552
